Data on 14 compounds can be found in patent US9371336B2, “Compounds for treating spinal muscular atrophy” (PTC Therapeutics Inc., priority 2012, dated 2016).

Data set [1] concerns SMN2 minigene mRNA (SMN2-A minigene construct). As to the kind of experiment: SMN2 minigene mRNA splicing RT-qPCR assay in cultured cells. It is filed as cell-based, human. Conditions: Homo sapiens, HEK293-H; HEK293H cells stably transfected with SMN2-A minigene, 24 hours, 7-point concentration data; concentration giving 1.5-fold SMN2 full length mRNA relative to vehicle-treated cells; read-out: EC1.5x for production of full length SMN2 mRNA. An outline of the steps:
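Full-length SMN2 minigene mRNA, measured by exon 7/luciferase-specific RT-qPCR that excludes endogenous SMN1/SMN2, was normalized to GAPDH and expressed relative to vehicle-treated cells via modified ΔΔCt. Stably transfected HEK293H cells received compound (7-point, 3.16-fold series, duplicates) for 24 h at 37 °C.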

The next data set deals with Smn protein. As to the kind of experiment: Smn protein assay (HTRF) in cultured cells (SMA patient fibroblasts GM03813). Conditions: 48 hours; for EC1.5x for Smn protein expression: SMA patient fibroblast cells (GM03813), HTRF, 7-point concentration data, concentration producing 1.5 times Smn protein vs DMSO vehicle control; for maximum fold (Fold) increase of Smn protein: SMA patient fibroblast cells, 7-point concentration curve, relative to vehicle control. It is filed as cell-based, human. Put shortly:
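SMA patient fibroblasts (GM03813) were treated 48 h at 37° C with a 7-point, 3.16-fold compound series in triplicate, then lysed in RIPA. Smn was read by HTRF (anti-SMN d2/kryptate, 665/620 nm ratio). ΔF versus blank was divided by vehicle ΔF to give fold Smn increase.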
(In TR-FRET formats the signal depends on donor and acceptor labels being close together.)

Consider `CN1CCN(c2ccc3cc(-c4cn5ccccc5n4)c(=O)oc3n2)CC1` [Cpd 38, 3-(imidazo[1,2-a]pyridin-2-yl)-7-(4-methylpiperazin-1-yl)-2H-pyrano[2,3-b]pyridin-2-one], for which the melting point (commonly the temperature of the solid-liquid transition) lay in the range of 243 to 246 °C. Moreover, the EC (1.5-fold) in data set [1] was in the range of 0.1 to 0.3 µM. For the same compound, in the data set on Smn protein, the “EC1.5x for Smn protein expression” value is “*** (an EC1.5× between >0.3 μM and ≦1 μM is indicated by three stars (***))”; the “maximum fold (Fold) increase of Smn protein” value (“maximum fold (Fold) increase” for short) is recorded as “***** (a fold increase >1.65 is indicated by five stars (*****))”.
`Cc1cn2cc(-c3cc4cnc(N5CCN(C)CC5)cc4oc3=O)nc2s1` [Cpd 55, 3-(2-methylimidazo[2,1-b][1,3]thiazol-6-yl)-7-(4-methylpiperazin-1-yl)-2H-pyrano[3,2-c]pyridin-2-one] registered a melting point of 282 to 286 °C. In data set [1], the EC (1.5-fold) was 1 to 3 µM. Moreover, in the data set with Smn protein, the “EC1.5x for Smn protein expression” value is “** (an EC1.5× between >1 and ≦3 μM is indicated by two stars (**))”; the “maximum fold (Fold) increase” value was “*** (a fold increase between >1.35 and ≦1.5 is indicated by three stars (***))”.
As for `Cc1ccn2cc(-c3cc4ccc(N5CCN(C)[C@@H](C)C5)nc4oc3=O)nc2c1` [Cpd 61, 7-[(3S)-3,4-dimethylpiperazin-1-yl]-3-(7-methylimidazo[1,2-a]pyridin-2-yl)-2H-pyrano[2,3-b]pyridin-2-one], the melting point fell in the range of 246 to 250 °C. In data set [1], the EC (1.5-fold) was at most 0.1 µM. In addition, in the data set with Smn protein, the “EC1.5x for Smn protein expression” value is given as “**** (an EC1.5×≦0.3 μM is indicated by four stars (****))”; the “maximum fold (Fold) increase” value is “**** (a fold increase between >1.5 and ≦1.65 is indicated by four stars (****))”.
`CCN1CCN(c2ccc3cc(-c4cn5cccc(F)c5n4)c(=O)oc3n2)CC1` [Cpd 132, 7-(4-ethylpiperazin-1-yl)-3-(8-fluoroimidazo[1,2-a]pyridin-2-yl)-2H-pyrano[2,3-b]pyridin-2-one]: the melting point is 203 to 206 °C. Further, in data set [1], the EC (1.5-fold) was 0.1 to 0.3 µM. Also, the “maximum fold (Fold) increase” value in the data set with Smn protein was “** (a fold increase between >1.2 and ≦1.35 is indicated by two stars (**))”.
With `O=c1oc2nc(N3CCNCC3)ccc2cc1-c1cn2cccc(F)c2n1` [Cpd 108, 3-(8-fluoroimidazo[1,2-a]pyridin-2-yl)-7-(piperazin-1-yl)-2H-pyrano[2,3-b]pyridin-2-one], the melting point fell in the range of 231 to 235 °C. Moreover, the EC (1.5-fold) in data set [1] is at most 0.1 µM. For the same compound, in the data set on Smn protein, the “EC1.5x for Smn protein expression” value is listed as “**** (an EC1.5×≦0.3 μM is indicated by four stars (****))”; the “maximum fold (Fold) increase” value is “**** (a fold increase between >1.5 and ≦1.65 is indicated by four stars (****))”.
`CCN1CCN(c2ccc3cc(-c4cn5ccc(C)cc5n4)c(=O)oc3n2)CC1` [Cpd 131, 7-(4-ethylpiperazin-1-yl)-3-(7-methylimidazo[1,2-a]pyridin-2-yl)-2H-pyrano[2,3-b]pyridin-2-one] registered a melting point of 258 to 261 °C. The EC (1.5-fold) in data set [1] lay within 0.1 to 0.3 µM. In the data set with Smn protein, the “maximum fold (Fold) increase” value is “*** (a fold increase between >1.35 and ≦1.5 is indicated by three stars (***))”.
`Cl.O=c1oc2cc(N3CCNCC3)ncc2cc1-c1nc2c(Cl)cccc2s1` [Cpd 9, 3-(4-chloro-1,3-benzothiazol-2-yl)-7-(piperazin-1-yl)-2H-pyrano[3,2-c]pyridin-2-one hydrochloride]: the melting point lay in the range of 266 to 270 °C. Further, the EC (1.5-fold) in data set [1] lay in the range of 0.1 to 0.3 µM. In addition, in the data set with Smn protein, the “maximum fold (Fold) increase” value is “* (A maximum fold increase ≦1.2 is indicated by one star (*))”.
As to `C[C@@H]1CN[C@@H](C)CN1c1ccc2cc(-c3cn4cccc(Cl)c4n3)c(=O)oc2n1` [Cpd 94, 3-(8-chloroimidazo[1,2-a]pyridin-2-yl)-7-[(2R,5S)-2,5-dimethylpiperazin-1-yl]-2H-pyrano[2,3-b]pyridin-2-one], the melting point lay in the range of 172 to 175 °C. Moreover, the EC (1.5-fold) in data set [1] was at most 0.1 µM. Besides, in the data set on Smn protein, the “EC1.5x for Smn protein expression” value is reported as “**** (an EC1.5×≦0.3 μM is indicated by four stars (****))”; the “maximum fold (Fold) increase” value was “**** (a fold increase between >1.5 and ≦1.65 is indicated by four stars (****))”.
Compound `CC(C)N1CCN(c2ccc3cc(-c4nc5ccccc5s4)c(=O)oc3n2)CC1` [Cpd 19, 3-(1,3-benzothiazol-2-yl)-7-[4-(propan-2-yl)piperazin-1-yl]-2H-pyrano[2,3-b]pyridin-2-one] showed a melting point of 241 to 245 °C. Further, the EC (1.5-fold) in data set [1] was in the range of 0.3 to 1 µM. Besides, the “maximum fold (Fold) increase” value in the data set on Smn protein is “** (a fold increase between >1.2 and ≦1.35 is indicated by two stars (**))”.
Regarding `CCN1CCN(c2ccc3cc(-c4cn5cccc(Cl)c5n4)c(=O)oc3n2)C[C@@H]1C` [Cpd 145, 3-(8-chloroimidazo[1,2-a]pyridin-2-yl)-7-[(3S)-4-ethyl-3-methylpiperazin-1-yl]-2H-pyrano[2,3-b]pyridin-2-one], the melting point is 196 to 199 °C. Moreover, the EC (1.5-fold) in data set [1] was at most 0.1 µM. Also, in the data set on Smn protein, the “EC1.5x for Smn protein expression” value is “**** (an EC1.5×≦0.3 μM is indicated by four stars (****))”; the “maximum fold (Fold) increase” value is “**** (a fold increase between >1.5 and ≦1.65 is indicated by four stars (****))”.
In turn, `C[C@@H]1CN(c2ccc3cc(-c4cn5cccnc5n4)c(=O)oc3n2)C[C@H](C)N1C` [Cpd 118, 3-(imidazo[1,2-a]pyrimidin-2-yl)-7-[(3R,5S)-3,4,5-trimethylpiperazin-1-yl]-2H-pyrano[2,3-b]pyridin-2-one] displayed a melting point of 286 to 289 °C. Moreover, the EC (1.5-fold) in data set [1] lay within 0.1 to 0.3 µM. Also, in the data set with Smn protein, the “EC1.5x for Smn protein expression” value was “** (an EC1.5× between >1 and ≦3 μM is indicated by two stars (**))”; the “maximum fold (Fold) increase” value is “*** (a fold increase between >1.35 and ≦1.5 is indicated by three stars (***))”.
Turning to `O=c1oc2nc(N3CCNCC3)ccc2cc1-c1nc2ccccc2s1` [Cpd 1, 3-(1,3-benzothiazol-2-yl)-7-(piperazin-1-yl)-2H-pyrano[2,3-b]pyridin-2-one], the melting point is 258 to 260 °C. The EC (1.5-fold) in data set [1] lay within 0.1 to 0.3 µM. Further, in the data set on Smn protein, the “EC1.5x for Smn protein expression” value was “*** (an EC1.5× between >0.3 μM and ≦1 μM is indicated by three stars (***))”; the “maximum fold (Fold) increase” value is “*** (a fold increase between >1.35 and ≦1.5 is indicated by three stars (***))”.
For `CN1CCCN(c2ccc3cc(-c4cn5cccnc5n4)c(=O)oc3n2)CC1` [Cpd 36, 3-(imidazo[1,2-a]pyrimidin-2-yl)-7-(4-methyl-1,4-diazepan-1-yl)-2H-pyrano[2,3-b]pyridin-2-one], the melting point was 232 to 234 °C. Besides, in data set [1], the EC (1.5-fold) was in the range of 0.3 to 1 µM. Further, in the data set with Smn protein, the “EC1.5x for Smn protein expression” value is “** (an EC1.5× between >1 and ≦3 μM is indicated by two stars (**))”; the “maximum fold (Fold) increase” value was “**** (a fold increase between >1.5 and ≦1.65 is indicated by four stars (****))”.
As for `Cl.O=c1oc2nc(N3CCCNCC3)ccc2cc1-c1cn2ccccc2n1` [Cpd 45, 7-(1,4-diazepan-1-yl)-3-(imidazo[1,2-a]pyridin-2-yl)-2H-pyrano[2,3-b]pyridin-2-one hydrochloride], the melting point is 265 to 267 °C. In addition, in data set [1], the EC (1.5-fold) fell in the range of 0.1 to 0.3 µM. Further, in the data set with Smn protein, the “EC1.5x for Smn protein expression” value is “*** (an EC1.5× between >0.3 μM and ≦1 μM is indicated by three stars (***))”; the “maximum fold (Fold) increase” value is “**** (a fold increase between >1.5 and ≦1.65 is indicated by four stars (****))”.
